# US6979471B1, “Composition comprising pharmaceutical/nutraceutical agent and a bio-enhancer obtained from Glycyrrhiza glabra” (Council of Scientific and Industrial Research, priority 2000, dated 2005)
# Tests used:
# Format in all cases: cell-based
# [1] = tested on: Escherichia coli (ATCC 10536); test: Broth assay for bio-enhancement of antibiotics: viable cell count, Escherichia coli; conditions: Table 1; for *Folds enhancement in antibiotic activity (a/b): glycyrrhizin 1 μg/ml
# [2] = tested on: Candida albicans (ATCC 10231); test: Disc diffusion assay, antifungal agent against Candida albicans
# Procedure: (§1) • a) The minimum inhibitory concentration (MIC) of any antibiotic or drug molecule is determined against Escherichia coli (ATCC 10536), Bacillus subtilis (ATCC 6015) and Mycobacterium smegmatis (ATCC 14468) and Candida albicans (ATCC 10231) in broth and disc diffusion assays. • b) The antibiotics or antifungal agents at concentrations 1/10, ⅛, ⅙, ¼, ⅓, ½ and equal to MIC are added alone and in combination with the test compound at varying concentrations in broth assays to evaluate the comparative level of inhibition and similarly at varying concentrations in disc diffusion assay. • c) The combinations showing enhancement in terms of higher activity than antibiotic alone for the inhibition of bacterial growth (large inhibition zone in disc diffusion and higher killing at lower concentration in broth assay) are picked up for future testing. • d) In broth assays the activity is quantified by counting number of viable cells in a given treatment and converted in fold enhancement by the combination treatment compared to antibiotic/drug alone in the killing percentage of cells. • e) The pretreatment assay is followed to determine whether the bioenhancer which may be either an extract obtained from the plant Glycyrrhiza glabra, glycyrrhizin or glycyrrhizic acid, is required along with antibiotic to enhance its activity or even its withdrawal after treatment or prior to antibiotic treatment would benefit. […] Assay for Bio-Enhancement of Anti-Cancer Agents • a) MCF-7 (Breast cancer cell line is inoculated at a density of about 0.1×10^6 cells in MEM medium in the wells of 24 well plate. • b) The used up medium in these cultures is replaced with fresh medium after 18 hours in each well. • c) The test compound (s) is added at desired concentrations in different wells just after the medium replacement. • d) Observations are recorded on the cell count after 36 hours for which the following steps are required. • i. […] The number of viable cells is counted in 5 big squares and the reading is taken from 5 microscopic fields to determine the average. • viii. […]
# Escherichia coli = test: Disc diffusion assay against Escherichia coli; conditions: Escherichia coli; read-out: Net zone of inhibition
# Procedure: as §1
# Mycobacterium smegmatis = test: Disc diffusion assay against Mycobacterium smegmatis; conditions: Mycolicibacterium smegmatis; read-out: Net zone of inhibition
# Procedure: as §1
# [3] = tested on: Bacillus subtilis (ATCC 6015); test: Broth assay for bio-enhancement of antibiotics: viable cell count, Bacillus subtilis
# Procedure: (§2) In the next step of elucidation of the enhancer action the applicants experimented with the killing activities of different antibiotics against the bacteria singly and in combination with the test compound glycyrrhizin following the method described above. These experiments are to be considered with assay for bioenhancement of the compounds glycyrrhizin/glycyrrhizic acid and licorice, as described earlier. […] In all the experiments the glycyrrhizin concentration was kept at 1 μg/ml, unless it is specifically mentioned.
# [4] = tested on: Mycobacterium smegmatis (ATCC 14468); test: Broth assay for bio-enhancement of antibiotics: viable cell count, Mycobacterium smegmatis; conditions: Table 3; for *Folds enhancement in antibiotic activity (a/b): glycyrrhizin 1 μg/ml
# Procedure: (§3) For this, the cells are treated with the bioenhancer/compound for 4 to 8 hours and then washed free of it by centrifugation and washing in sterile water. […] 2. Assay for Bio-Enhancement of Anti-Cancer Agents • a) MCF-7 (Breast cancer cell line is inoculated at a density of about 0.1×10^6 cells in MEM medium in the wells of 24 well plate. • b) The used up medium in these cultures is replaced with fresh medium after 18 hours in each well. • c) The test compound (s) is added at desired concentrations in different wells just after the medium replacement. • d) Observations are recorded on the cell count after 36 hours for which the following steps are required. • i. The medium is removed from the wells. • ii. The wells are rinsed with 1 ml PBS (Phosphate buffer saline). • iii. To each well 500 μl of freshly prepared trypsin solution (0.1% in PBS) is added. • iv. Trypsin solution is removed after 30 seconds and the plate is gently tapped till the cells are released from the plate surface. • v. Fresh 1 ml of MEM growth medium is added and agitated with a pipette to obtain a cell suspension. • vi. 10 μl of cell suspension is taken on the haemocytometer and a cover glass is placed over the counting chamber. • vii. The number of viable cells is counted in 5 big squares and the reading is taken from 5 microscopic fields to determine the average. • viii. The cell count (titre per ml) in the original sample is then calculated as average count×10^3. Composition of Minimum Essential Medium (MEM): 100 ml
# as §2
# [5] = tested on: MCF-7 (Breast cancer cell line); test: Assay for bio-enhancement of anti-cancer agents: viable cell count after 36 hours; conditions: for Final titre of viable cells upon treatment with taxol-glycyrrhizin combination / Final titre of viable cells upon treatment with taxol alone: initial titre 0.1 × 10^6, 36 hours
# Procedure: as §3
# [6] = antibiotic 8 μg/ml + glycyrrhizin 1 μg/ml
# [7] = antibiotic 4 μg/ml + glycyrrhizin 1 μg/ml
smiles,measurement,setting,value
CC1(C)S[C@@H]2[C@H](NC(=O)[C@H](N)c3ccccc3)C(=O)N2[C@H]1C(=O)O [Ampicillin],Survival fraction of viable cells upon treatment with antibiotic alone (a),[1]; antibiotic 6 μg/ml,0.38
same,Survival fraction of viable cells upon treatment with antibiotic- glycyrrhizin combination (b),[1]; antibiotic 6 μg/ml + glycyrrhizin 1 μg/ml,0.03
same,*Folds enhancement in antibiotic activity (a/b),[1]; antibiotic 6 μg/ml,12.6 folds
same,Survival fraction of viable cells upon treatment with antibiotic alone (a),[1]; antibiotic 8 μg/ml,0.013
same,Survival fraction of viable cells upon treatment with antibiotic- glycyrrhizin combination (b),[1]; [6],0.006
same,*Folds enhancement in antibiotic activity (a/b),[1]; antibiotic 8 μg/ml,2.1 folds
Clc1ccccc1C(c1ccccc1)(c1ccccc1)n1ccnc1 [Clotrimazole],zone of inhibition at 4 µg/disc,"[2]; Candida albicans, ATCC10231, clotrimazole 4 μg/disc alone, glycyrrhizin 0",7 mm
same,Zone of inhibition,[2]; clotrimazole 4 μg/disc + glycyrrhizin 1 μg/disc,11 mm
CC1(C)[C@@H](O[C@H]2O[C@H](C(=O)O)[C@@H](O)[C@H](O)[C@H]2O[C@@H]2O[C@H](C(=O)O)[C@@H](O)[C@H](O)[C@H]2O)CC[C@]2(C)[C@H]3C(=O)C=C4[C@@H]5C[C@@](C)(C(=O)O)CC[C@]5(C)CC[C@@]4(C)[C@]3(C)CC[C@@H]12 [Glycyrrhizic acid],zone of inhibition at 4 µg/disc,Escherichia coli,0 mm
same,zone of inhibition at 4 µg/disc,Mycobacterium smegmatis,0 mm
CCn1cc(C(=O)O)c(=O)c2ccc(C)nc21 [Nalidixic acid],Survival fraction of viable cells upon treatment with antibiotic alone (a),[1]; antibiotic 8 μg/ml,0.19
same,Survival fraction of viable cells upon treatment with antibiotic- glycyrrhizin combination (b),[1]; [6],0.02
same,*Folds enhancement in antibiotic activity (a/b),[1]; antibiotic 8 μg/ml,9.5 folds
same,Survival fraction of viable cells upon treatment with antibiotic alone (a),"[3]; Table 2, antibiotic 6 μg/ml",0.50
same,Survival fraction of viable cells upon treatment with antibiotic- glycyrrhizin combination (b),"[3]; Table 2, antibiotic 6 μg/ml + glycyrrhizin 1 μg/ml",0.11
same,*Folds enhancement in antibiotic activity (a/b),"[3]; Table 2, antibiotic 6 μg/ml, glycyrrhizin 1 μg/ml",4.50 folds
same,Survival fraction of viable cells upon treatment with antibiotic alone (a),"[3]; Table 2, antibiotic 8 μg/ml",0.27
same,Survival fraction of viable cells upon treatment with antibiotic- glycyrrhizin combination (b),"[3]; Table 2, antibiotic 8 μg/ml + glycyrrhizin 1 μg/ml",0.04
same,*Folds enhancement in antibiotic activity (a/b),"[3]; Table 2, antibiotic 8 μg/ml, glycyrrhizin 1 μg/ml",6.75 folds
same,Survival fraction of viable cells upon treatment with antibiotic alone (a),"[3]; Table 11, antibiotic 6 μg/ml",0.500
same,Survival fraction of viable cells upon treatment with antibiotic glycyrrhizic acid combination (b),"[3]; Table 11, antibiotic 6 μg/ml + licorice 25 μg/ml",0.121
same,*Folds enhancement in antibiotic activity (a/b),"[3]; Table 11, antibiotic 6 μg/ml, licorice 25 μg/ml",4.10 folds
same,Survival fraction of viable cells upon treatment with antibiotic alone (a),[4]; antibiotic 4 μg/ml,0.70
same,Survival fraction of viable cells upon treatment with antibiotic- glycyrrhizin combination (b),[4]; [7],0.12
same,*Folds enhancement in antibiotic activity (a/b),[4]; antibiotic 4 μg/ml,7.7 folds
"CC(=O)O[C@H]1C(=O)[C@@]2(C)[C@H]([C@H](OC(=O)c3ccccc3)[C@]3(O)C[C@H](OC(=O)[C@H](O)[C@@H](NC(=O)c4ccccc4)c4ccccc4)C(C)=C1C3(C)C)[C@]1(OC(C)=O)CO[C@@H]1C[C@@H]2O [Taxol, Paclitaxel (Taxol)]","Cancerous cells growth inhibition by Taxol in presence of glycyrrhizin, compared with taxol alone",[5]; Taxol 0.01 μg/ml + glycyrrhizin 1 μg/ml versus taxol 0.05 μg/ml alone,higher than even the treatment with taxol (@ 0.05 μg/ml) alone
same,Final titre of viable cells upon treatment with taxol-glycyrrhizin combination,[5]; taxol 0.01 μg/ml + glycyrrhizin 1 μg/ml,0.025 × 10^6 per ml
same,Final titre of viable cells upon treatment with taxol alone,[5]; taxol 0.01 μg/ml,0.05 × 10^−6 per ml
same,Final titre of viable cells upon treatment with taxol-glycyrrhizin combination,[5]; taxol 0.02 μg/ml + glycyrrhizin 1 μg/ml,0.024 × 10^6 per ml
same,Final titre of viable cells upon treatment with taxol alone,[5]; taxol 0.02 μg/ml,0.04 × 10^−6 per ml
same,Final titre of viable cells upon treatment with taxol-glycyrrhizin combination,[5]; taxol 0.05 μg/ml + glycyrrhizin 1 μg/ml,0.021 × 10^6 per ml
same,Final titre of viable cells upon treatment with taxol alone,[5]; taxol 0.05 μg/ml,0.03 × 10^−6 per ml
same,Enhancement of anticancerous activity (inhibiting growth and multiplication of MCF-7 cells) by glycyrrhizin,[5]; taxol with glycyrrhizin 1 μg/ml,at least 5 folds
CN(C)[C@@H]1C(O)=C(C(N)=O)C(=O)[C@@]2(O)C(O)=C3C(=O)c4c(O)cccc4[C@@](C)(O)[C@H]3C[C@@H]12 [Tetracycline],Survival fraction of viable cells upon treatment with antibiotic alone (a),[1]; antibiotic 2 μg/ml,0.42
same,Survival fraction of viable cells upon treatment with antibiotic- glycyrrhizin combination (b),[1]; antibiotic 2 μg/ml + glycyrrhizin 1 μg/ml,0.22
same,*Folds enhancement in antibiotic activity (a/b),[1]; antibiotic 2 μg/ml,1.9 folds
same,Survival fraction of viable cells upon treatment with antibiotic alone (a),[1]; antibiotic 4 μg/ml,0.27
same,Survival fraction of viable cells upon treatment with antibiotic- glycyrrhizin combination (b),[1]; [7],0.03
same,*Folds enhancement in antibiotic activity (a/b),[1]; antibiotic 4 μg/ml,9.0 folds
same,Survival fraction of viable cells upon treatment with antibiotic alone (a),"[3]; Table 2, antibiotic 1 μg/ml",0.10
same,Survival fraction of viable cells upon treatment with antibiotic- glycyrrhizin combination (b),"[3]; Table 2, antibiotic 1 μg/ml + glycyrrhizin 1 μg/ml",0.02
same,*Folds enhancement in antibiotic activity (a/b),"[3]; Table 2, antibiotic 1 μg/ml, glycyrrhizin 1 μg/ml",5.00 folds
same,Survival fraction of viable cells upon treatment with antibiotic alone (a),[4]; antibiotic 0.5 μg/ml,0.3
same,Survival fraction of viable cells upon treatment with antibiotic- glycyrrhizin combination (b),[4]; antibiotic 0.5 μg/ml + glycyrrhizin 1 μg/ml,0.2
same,*Folds enhancement in antibiotic activity (a/b),[4]; antibiotic 0.5 μg/ml,1.5 folds
